Measurements: patent US5929236A, “2-substituted morpholine and thiomorpholine derivatives as GABA-B antagonists” (Schering Corporation, priority 1995, dated 1999)

How the values were obtained:
[1] = tested on: seizure in rats induced by PTZ; test: Prevention of seizure in rats induced by PTZ; type: in vivo, rat; settings: PTZ model
Experimental: (§1) Animal Models for Absence Seizures
(§2) A. Snead, Eur. J. Pharmacol., 213, 343-349 (1992), teaches a pharmacological model for testing the effectiveness of GABAB antagonists in preventing seizures induced by intra-peritoneal (ip) administration of either γ-butyrolactone (GBL) or pentylenetetrazole (PTZ) to rats. The animal is treated with the test compound, then monitored after being subjected to a dose of either GBL or PTZ sufficient to induce seizures.

GABAB receptors = biological target: T1, GABAB receptors (Rattus norvegicus, UniProt Q9Z0U4); test: GABAB Receptor Binding Assay ([3H]GABA, rat brain synaptosomes); settings: 5 nM [3H]GABA, rat brain synaptosomes, 20° C., 30 min
T1 construct: Rat brain synaptosomes are used as a source of GABAB receptors; from tissue; host or cells: rat brain synaptosomes
Experimental: GABAB Receptor Binding Assay
The percentage inhibition of GABA binding to GABAB receptors is measured by tritiated GABA ([^3 H]GABA) determination of the degree of binding by scintillation counting. Rat brain synaptosomes are used as a source of GABAB receptors. An incubation medium is prepared from the following: 20 μg/mL of the compound to be tested as a solution in 1% DMSO/water; 5 nM [^3 H]GABA; 50 mM Tris buffer (pH 7.5); and 2.5 mM CaCl2. The medium also contains 40 μM isoguvacine to selectively block binding to GABAA receptors. The synaptosome (200 μg/mL) is added to the incubation medium and incubated for 30 minutes at 20° C. The incubation is terminated by filtration and counted to determine the percentage inhibition of [^3 H]-GABA binding. The results are reported as IC50 values for those compounds inhibiting [^3 H]-GABA binding by >50%.

[2] = tested on: seizure in rats induced by GBL; test: Prevention of seizure in rats induced by GBL; type: in vivo, rat; settings: 100 mg/kg GBL (ip)
Experimental: as §1, §2

[3] = biological target: prejunctional GABAB receptors (Cavia porcellus, UniProt A0A286X9P6); test: In Vitro Assay (guinea pig trachea, reversal of baclofen inhibition of EFS-induced contractions); type: cell-based, guinea pig (male Hartley); settings: 30 μmol/L baclofen
Experimental: Male Hartley guinea pigs (450-650 g) are sacrificed by stunning and the trachea removed proximal to the carina and cut into 5 mm segments. The segments are attached to isometric force displacement transducers (Model FT03: Grass Instruments) and suspended in 15 mL organ baths filled with low Ca^2+ (0.6 mmol/L) Tyrode's buffer solution (pH 7.4) supplemented with 5.6 mmol/L glucose, 30 μmol/L choline and 2 μmol/L indomethacin. The solution is bubbled with a mixture of 95% O2 +5% CO2 and maintained at 37° C. The tracheal segments are allowed to equilibrate for 90 minutes under a resting tension of 0.5 g.
Platinum electrodes are placed on either side of the trachea and electrical field stimulation (EFS) (20 V, 8 Hz, 0.5 ms pulse for 5 s) was generated each minute from an electrical stimulator (Model S-88: Grass Instruments) and delivered to the electrodes through a stimulus distributor (Buxco Electronics). The stimulation parameters are chosen as appropriate for producing cholinergic contractions of the trachea that are sensitive to the inhibitory effects of compounds acting at prejunctional GABAB receptors. Contractile responses were recorded on a polygraph (Harvard Apparatus). The compound to be tested is added to the bath 10 min. before addition of 30 μmol/L baclofen. The effect of baclofen treatment in the absence or in the presence of the compound to be tested is expressed as a percent inhibition of EFS-induced contractions.

[4] = tested on: seizure in lethargic (lh/lh) mice; test: Prevention of seizure in lethargic (lh/lh) mice; type: in vivo
Description: B. Hosford, et al., Science, 257, 398-401 (Jul. 17, 1992), teaches a pharmacological model for testing the effectiveness of GABAB antagonists as anticonvulsants for the treatment of absence seizures by administering the compound to be tested to lethargic (lh/lh) mice, a mutant strain with spontaneous seizures.

Chain of prejunctional GABAB receptors (A0A286X9P6 30-844): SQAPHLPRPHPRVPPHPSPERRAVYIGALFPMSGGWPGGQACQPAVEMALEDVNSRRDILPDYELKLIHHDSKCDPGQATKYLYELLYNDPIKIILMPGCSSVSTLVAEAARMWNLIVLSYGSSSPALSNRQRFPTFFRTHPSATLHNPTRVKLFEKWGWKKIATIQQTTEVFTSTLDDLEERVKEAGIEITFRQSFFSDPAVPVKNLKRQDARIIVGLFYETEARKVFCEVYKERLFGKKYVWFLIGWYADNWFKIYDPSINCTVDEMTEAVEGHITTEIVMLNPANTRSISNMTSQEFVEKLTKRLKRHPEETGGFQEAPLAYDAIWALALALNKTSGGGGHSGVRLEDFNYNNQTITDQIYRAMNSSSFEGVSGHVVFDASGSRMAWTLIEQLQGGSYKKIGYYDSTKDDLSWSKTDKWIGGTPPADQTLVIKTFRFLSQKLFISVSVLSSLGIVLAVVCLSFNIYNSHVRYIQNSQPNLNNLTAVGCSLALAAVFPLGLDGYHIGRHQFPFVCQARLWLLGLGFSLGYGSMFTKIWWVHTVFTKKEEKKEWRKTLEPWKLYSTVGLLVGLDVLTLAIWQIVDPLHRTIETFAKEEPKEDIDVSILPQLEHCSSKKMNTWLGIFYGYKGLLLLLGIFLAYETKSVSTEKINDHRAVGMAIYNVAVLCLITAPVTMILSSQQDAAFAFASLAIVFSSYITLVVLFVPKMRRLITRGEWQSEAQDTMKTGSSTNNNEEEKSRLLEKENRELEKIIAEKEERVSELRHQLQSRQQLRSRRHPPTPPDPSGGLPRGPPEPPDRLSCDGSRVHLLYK
Chain of prejunctional GABAB receptors (H0V741 1-820 partner): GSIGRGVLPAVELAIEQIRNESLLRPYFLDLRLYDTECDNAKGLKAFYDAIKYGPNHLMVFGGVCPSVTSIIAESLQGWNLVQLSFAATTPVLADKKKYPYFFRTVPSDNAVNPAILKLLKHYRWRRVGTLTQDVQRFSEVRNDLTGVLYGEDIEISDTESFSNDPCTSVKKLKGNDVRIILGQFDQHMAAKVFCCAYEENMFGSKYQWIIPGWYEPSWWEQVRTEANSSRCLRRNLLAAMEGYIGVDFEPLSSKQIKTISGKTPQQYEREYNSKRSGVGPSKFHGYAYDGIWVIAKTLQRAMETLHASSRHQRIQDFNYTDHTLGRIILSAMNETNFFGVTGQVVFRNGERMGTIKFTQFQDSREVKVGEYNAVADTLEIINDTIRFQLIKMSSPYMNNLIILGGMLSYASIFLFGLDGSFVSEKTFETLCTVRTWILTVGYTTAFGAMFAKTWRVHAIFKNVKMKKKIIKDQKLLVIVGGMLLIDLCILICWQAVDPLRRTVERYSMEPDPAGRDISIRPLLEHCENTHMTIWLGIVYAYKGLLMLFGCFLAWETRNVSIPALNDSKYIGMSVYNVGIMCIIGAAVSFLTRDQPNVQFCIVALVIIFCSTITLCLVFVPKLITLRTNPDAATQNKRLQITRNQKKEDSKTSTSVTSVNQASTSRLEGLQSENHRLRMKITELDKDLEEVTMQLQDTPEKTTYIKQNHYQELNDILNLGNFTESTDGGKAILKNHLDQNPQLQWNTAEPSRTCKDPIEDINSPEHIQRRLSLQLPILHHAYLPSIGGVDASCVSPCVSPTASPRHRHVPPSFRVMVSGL
T1 sequence (Q9Z0U4 17-960 limits assumed): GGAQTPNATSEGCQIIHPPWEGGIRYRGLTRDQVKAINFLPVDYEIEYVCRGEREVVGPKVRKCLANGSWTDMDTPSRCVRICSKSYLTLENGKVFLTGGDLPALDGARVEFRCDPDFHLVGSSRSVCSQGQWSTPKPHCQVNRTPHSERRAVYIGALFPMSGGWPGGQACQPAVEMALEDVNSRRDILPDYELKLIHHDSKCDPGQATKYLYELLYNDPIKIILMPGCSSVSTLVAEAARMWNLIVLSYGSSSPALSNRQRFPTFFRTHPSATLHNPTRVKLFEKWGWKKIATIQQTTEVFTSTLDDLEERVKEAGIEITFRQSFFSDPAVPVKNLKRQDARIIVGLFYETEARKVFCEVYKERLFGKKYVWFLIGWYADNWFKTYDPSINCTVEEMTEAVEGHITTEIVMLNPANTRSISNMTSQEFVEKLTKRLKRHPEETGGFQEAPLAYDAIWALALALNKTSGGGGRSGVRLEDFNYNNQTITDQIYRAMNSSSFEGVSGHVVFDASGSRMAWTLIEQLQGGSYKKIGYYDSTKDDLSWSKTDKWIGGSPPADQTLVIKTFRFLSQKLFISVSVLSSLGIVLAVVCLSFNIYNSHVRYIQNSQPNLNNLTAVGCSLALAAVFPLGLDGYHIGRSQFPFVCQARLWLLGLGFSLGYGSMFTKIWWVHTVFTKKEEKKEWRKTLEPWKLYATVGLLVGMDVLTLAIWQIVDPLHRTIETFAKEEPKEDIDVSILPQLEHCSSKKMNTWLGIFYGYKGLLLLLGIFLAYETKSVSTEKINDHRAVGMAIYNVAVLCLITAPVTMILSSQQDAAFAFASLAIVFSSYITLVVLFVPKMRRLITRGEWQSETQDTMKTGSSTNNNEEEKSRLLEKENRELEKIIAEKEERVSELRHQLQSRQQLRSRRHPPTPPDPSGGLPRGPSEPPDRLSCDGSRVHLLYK
T1 sequence (O88871 41-940 partner): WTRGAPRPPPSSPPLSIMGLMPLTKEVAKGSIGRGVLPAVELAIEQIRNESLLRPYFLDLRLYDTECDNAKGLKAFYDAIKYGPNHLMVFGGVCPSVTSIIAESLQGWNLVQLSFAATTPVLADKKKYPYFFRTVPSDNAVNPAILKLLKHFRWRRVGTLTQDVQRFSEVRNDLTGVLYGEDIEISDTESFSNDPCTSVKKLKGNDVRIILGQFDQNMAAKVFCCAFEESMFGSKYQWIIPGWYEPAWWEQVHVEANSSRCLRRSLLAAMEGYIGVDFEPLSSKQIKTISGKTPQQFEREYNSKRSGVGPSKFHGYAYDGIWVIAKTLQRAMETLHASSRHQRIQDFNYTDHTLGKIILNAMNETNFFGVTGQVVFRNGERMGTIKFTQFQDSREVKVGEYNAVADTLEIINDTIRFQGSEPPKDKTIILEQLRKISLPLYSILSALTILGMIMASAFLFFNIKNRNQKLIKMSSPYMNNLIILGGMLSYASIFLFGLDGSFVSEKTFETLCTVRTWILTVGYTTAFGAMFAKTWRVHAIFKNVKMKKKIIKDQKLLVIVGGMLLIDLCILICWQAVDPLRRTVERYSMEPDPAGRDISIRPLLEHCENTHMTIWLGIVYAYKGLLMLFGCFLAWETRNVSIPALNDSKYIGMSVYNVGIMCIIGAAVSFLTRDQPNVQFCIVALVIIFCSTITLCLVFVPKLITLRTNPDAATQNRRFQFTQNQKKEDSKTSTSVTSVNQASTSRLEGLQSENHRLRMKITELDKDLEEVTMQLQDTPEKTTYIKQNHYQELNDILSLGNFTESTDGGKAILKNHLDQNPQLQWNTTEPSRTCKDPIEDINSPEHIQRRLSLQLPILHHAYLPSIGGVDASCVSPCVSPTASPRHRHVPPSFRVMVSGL

CC1(C)COC(CC(=O)O)CN1 (single isomer, unassigned) [Example 6A]
SWD duration ([1]; 0.18 mg/kg, 20 min): 250 s | SWD duration ([1]; 0.18 mg/kg, 40 min): 235 s | SWD duration ([1]; 0.18 mg/kg, 60 min): 140 s | SWD duration ([1]; 0.18 mg/kg, 80 min): 60 s | SWD duration ([1]; 0.18 mg/kg, 100 min): 15 s | SWD duration ([1]; 0.18 mg/kg, 120 min): 0 s | SWD duration ([1]; 0.375 mg/kg, 20 min): 150 s | SWD duration ([1]; 0.375 mg/kg, 40 min): 140 s | SWD duration ([1]; 0.375 mg/kg, 60 min): 55 s | SWD duration ([1]; 0.375 mg/kg, 80 min): 25 s | SWD duration ([1]; 0.375 mg/kg, 100 min): 0 s | SWD duration ([1]; 0.375 mg/kg, 120 min): 0 s | SWD duration ([1]; 0.75 mg/kg, 20 min): 90 s | SWD duration ([1]; 0.75 mg/kg, 40 min): 70 s | SWD duration ([1]; 0.75 mg/kg, 60 min): 45 s | SWD duration ([1]; 0.75 mg/kg, 80 min): 0 s | SWD duration ([1]; 0.75 mg/kg, 100 min): 0 s | SWD duration ([1]; 0.75 mg/kg, 120 min): 0 s | SWD duration ([1]; 1.5 mg/kg, 20 min): 0 s | SWD duration ([1]; 1.5 mg/kg, 40 min): 0 s | SWD duration ([1]; 1.5 mg/kg, 60 min): 0 s | SWD duration ([1]; 1.5 mg/kg, 80 min): 0 s | SWD duration ([1]; 1.5 mg/kg, 100 min): 0 s | SWD duration ([1]; 1.5 mg/kg, 120 min): 0 s | IC50 (GABAB receptors): 2 µM | SWD duration ([2]; 0.75 mg/kg, 20 min): 970 s | SWD duration ([2]; 0.75 mg/kg, 40 min): 1150 s | SWD duration ([2]; 0.75 mg/kg, 60 min): 500 s | SWD duration ([2]; 0.75 mg/kg, 80 min): 280 s | SWD duration ([2]; 0.75 mg/kg, 100 min): 50 s | SWD duration ([2]; 0.75 mg/kg, 120 min): 0 s | SWD duration ([2]; 1.5 mg/kg, 20 min): 560 s | SWD duration ([2]; 1.5 mg/kg, 40 min): 540 s | SWD duration ([2]; 1.5 mg/kg, 60 min): 0 s | SWD duration ([2]; 1.5 mg/kg, 80 min): 0 s | SWD duration ([2]; 1.5 mg/kg, 100 min): 0 s | SWD duration ([2]; 1.5 mg/kg, 120 min): 0 s | SWD duration ([2]; 3.0 mg/kg, 20 min): 0 s | SWD duration ([2]; 3.0 mg/kg, 40 min): 0 s | SWD duration ([2]; 3.0 mg/kg, 60 min): 0 s | SWD duration ([2]; 3.0 mg/kg, 80 min): 0 s | SWD duration ([2]; 3.0 mg/kg, 100 min): 0 s | SWD duration ([2]; 3.0 mg/kg, 120 min): 0 s | inhibition at 30 µM ([3]; 30 μM): 90% | IC30 ([3]; guinea pig trachea): 1.1 µM | In Vitro % inhibition ([3]; 100 μM): 94% | Seizures (% vehicle) in 120 min. ([4]; 1.0 mg/kg ip): 85% | Seizures (% vehicle) in 120 min. ([4]; 3.0 mg/kg ip): 60% | Seizures (% vehicle) in 120 min. ([4]; 10 mg/kg ip): 15% | Seizures (% vehicle) in 120 min. ([4]; 30 mg/kg ip): 5%
